Experiments:
[1] = tested on: AP-1 site in the presence of ERβ; conditions: cited from earlier work
[2] = tested on: AP-1 site in the presence of ERα; conditions: cited from earlier work
[3] = tested on: pre-existing DMBA-induced mammary tumours; test: DMBA-induced tumour model in rats, therapeutic design, pre-existing tumours (Example 5); format: in vivo, rat
Description: As set forth in example 3, female Sprague-Dawley rats were given 16 mg DMBA at the age of 50 days. Mammary tumour development was allowed to proceed until week 8 after DMBA treatment. Animals were subsequently allocated to one of six groups, receiving 4 weeks daily oral treatment with placebo, tamoxifen or estetrol as follows: • Group 1 animals received placebo treatment with a single daily dose of 3.0 ml/kg vehicle (20% wt/vol solution of hydroxypropyl-beta-cyclodextrin in water); • Group 2 animals were surgically castrated and received placebo treatment with 3.0 ml/kg/day vehicle; • Group 3 animals received tamoxifen at a dose of 1 mg/kg; • Group 4 animals received estetrol at a dose of 1.0 mg/kg; • Group 5 animals received estetrol at a dose of 3.0 mg/kg; • Group 6 animals received estetrol at a dose of 10.0 mg/kg. […] During therapy, the progression or disappearance of palpable mammary tumours and the size of the tumours were determined weekly. At necropsy, tumours were counted, measured and the change from baseline at the start of treatment was calculated.

[4] = tested on: DMBA-induced mammary tumours; test: Second DMBA trial in rats, dose-response prevention study (Example 4); format: in vivo, rat; conditions: 8 weeks
Text: Estetrol and tamoxifen were subsequently tested in a second DMBA trial in rats to evaluate the dose-response relationships in preventing rats from developing mammary tumours. The experimental procedure as set forth in example 3 was used as a prevention study to treat the animals (12 animals per group) for 8 consecutive weeks after tumour induction with oral dosages of either estetrol or tamoxifen. DMBA-exposed rats were randomly assigned to treatment groups, receiving oral treatment as follows: • Group 1 animals received placebo oral treatment in the form of a single daily dose of 3.0 ml/kg vehicle (20% wt/vol solution of hydroxypropyl-beta-cyclodextrin in water); • Group 2 animals received tamoxifen orally at a single daily dose of 1 mg/kg; • Group 3 animals received tamoxifen orally at a single daily dose of 2 mg/kg; • Group 4 animals received tamoxifen orally at a single daily dose of 3 mg/kg; • Group 5 animals received estetrol orally at a single daily dose of 0.5 mg/kg; • Group 6 animals received estetrol orally at a single daily dose of 1.0 mg/kg; • Group 7 animals received estetrol orally at a single daily dose of 1.5 mg/kg; • Group 8 animals received estetrol orally at a single daily dose of 2.0 mg/kg; • Group 9 animals received estetrol orally at a single daily dose of 2.5 mg/kg; and • Group 10 animals received estetrol orally at a single daily dose of 3.0 mg/kg
During the treatment period of 8 weeks, the emergence of palpable tumours and number of tumours were determined weekly. The number of mammary tumours at necropsy is depicted in FIG. 2.

[5] = tested on: DMBA-induced mammary tumours; test: DMBA-induced tumour model in rats, prevention (Example 3); format: in vivo, rat; conditions: 8 weeks
[6] = Previous studies: agonistic models of bone resorption, hot flushing and vaginal cornification; format: in vivo; conditions: vaginal cornification
Text: Eighty-four female Sprague-Dawley rats (Harlan, The Netherlands) were group housed, maintained in a 12-hr light/dark environment, and fed a Soya Free Diet (SDS England) and water ad libitum. Animals were weighed on a weekly basis.

[7] = biological target: human ERα (Homo sapiens (Human), UniProt P03372); test: Competitive steroid binding assay, ERα
human ERα, sequence (P03372 whole entry): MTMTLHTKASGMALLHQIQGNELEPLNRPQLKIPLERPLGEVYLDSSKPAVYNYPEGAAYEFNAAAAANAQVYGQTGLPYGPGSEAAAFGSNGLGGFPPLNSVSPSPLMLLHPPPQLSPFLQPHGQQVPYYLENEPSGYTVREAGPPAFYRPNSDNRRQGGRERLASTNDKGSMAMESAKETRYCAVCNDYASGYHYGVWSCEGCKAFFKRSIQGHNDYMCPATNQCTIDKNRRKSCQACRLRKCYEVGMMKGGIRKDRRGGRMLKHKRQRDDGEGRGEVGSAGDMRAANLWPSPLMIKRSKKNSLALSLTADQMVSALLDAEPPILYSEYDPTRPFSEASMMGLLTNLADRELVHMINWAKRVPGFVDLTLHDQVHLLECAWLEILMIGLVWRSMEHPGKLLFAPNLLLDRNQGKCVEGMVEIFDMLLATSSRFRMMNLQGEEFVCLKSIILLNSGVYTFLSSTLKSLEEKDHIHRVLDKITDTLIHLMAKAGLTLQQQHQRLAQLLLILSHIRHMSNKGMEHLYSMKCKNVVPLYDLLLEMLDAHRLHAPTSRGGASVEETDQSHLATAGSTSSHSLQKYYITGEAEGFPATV

[8] = biological target: human ERβ (Homo sapiens (Human), UniProt Q92731); test: Competitive steroid binding assay, ERβ
human ERβ, sequence (Q92731 whole entry): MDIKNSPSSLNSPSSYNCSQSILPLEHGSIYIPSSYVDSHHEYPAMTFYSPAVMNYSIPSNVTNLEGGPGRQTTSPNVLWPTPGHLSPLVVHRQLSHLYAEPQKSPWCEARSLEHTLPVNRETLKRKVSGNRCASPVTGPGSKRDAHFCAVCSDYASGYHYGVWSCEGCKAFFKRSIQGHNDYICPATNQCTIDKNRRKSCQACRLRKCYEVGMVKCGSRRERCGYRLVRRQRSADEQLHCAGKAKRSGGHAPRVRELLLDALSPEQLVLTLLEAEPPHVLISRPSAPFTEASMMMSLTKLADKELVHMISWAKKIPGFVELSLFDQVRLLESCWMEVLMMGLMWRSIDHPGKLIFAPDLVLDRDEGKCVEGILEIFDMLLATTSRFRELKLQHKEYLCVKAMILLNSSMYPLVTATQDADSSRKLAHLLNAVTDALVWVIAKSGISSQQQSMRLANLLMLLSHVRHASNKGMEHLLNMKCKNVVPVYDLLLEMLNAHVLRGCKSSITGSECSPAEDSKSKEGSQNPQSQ

[9] = tested on: cultured endothelial cells of human umbilical cord veins; conditions: cited from earlier work
[10] = Single rising oral dose study in healthy postmenopausal volunteers; format: in vivo, human
Description: To determine the bioavailability and elimination half-life of estetrol after oral dosing in humans a single rising dosing study was performed in healthy postmenopausal volunteers. Volunteers (n=6) were randomly assigned to 0.1, 1 or 10 mg estetrol and blood samples (18 per volunteer) were obtained over a period of 72 hours. After thawing the plasma samples, liquid-liquid extraction (hexane and diethyl ether) was employed to prepare the estetrol-containing plasma samples for HPLC analysis (Perkin is Elmer 200) and tandem mass spectrometry using a PE Sciex 4000 tandem mass spectrometer and APCI interface. With each sample batch, a calibration curve with 6 calibrators was recorded.

C[C@]12CC[C@@H]3c4ccc(O)cc4CC[C@H]3[C@@H]1CC[C@@H]2O [E2, 17β-estradiol]
Effect on AP-1 site [1]: inhibits | Effect on AP-1 site [2]: activates

CC/C(=C(\c1ccccc1)c1ccc(OCCN(C)C)cc1)c1ccccc1 [tamoxifen, reference compound]
Tumour size, percentage change from baseline, net group effect ([3]; tamoxifen 1 mg/kg/day orally 4 weeks): increase in tumour size as net group effect | Efficacy against further development and progression of mammary tumours ([3]; tamoxifen 1 mg/kg/day orally 4 weeks, started 8 weeks after DMBA): ineffective | Tumour number at necropsy ([3]; tamoxifen 1 mg/kg/day orally 4 weeks, n=8, 15 at start of treatment): 19 | Palpable tumours developed ([4]; tamoxifen 1, 2 and 3 mg/kg/day orally): In none of the tamoxifen groups (1, 2, and 3 mg/kg/day) palpable tumours developed | Effect on AP-1 site [1]: stimulate | Effect on AP-1 site [2]: inhibit | Development of mammary tumours ([5]; tamoxifen 3 mg/kg/day orally): inhibiting the development of mammary tumours

O=C(c1ccc(OCCN2CCCCC2)cc1)c1c(-c2ccc(O)cc2)sc2cc(O)ccc12 [raloxifene]
Effect on AP-1 site [1]: stimulate | Effect on AP-1 site [2]: inhibit

C[C@]12CC[C@@H]3c4ccc(O)cc4C[C@@H](CCCCCCCCC[S+]([O-])CCCC(F)(F)C(F)(F)F)[C@H]3[C@@H]1CC[C@@H]2O (stereo partly shown) [ICI-182,780]
Effect on AP-1 site [1]: stimulate | Effect on AP-1 site [2]: inhibit

C[C@]12CC[C@@H]3c4ccc(O)cc4CC[C@H]3[C@@H]1[C@@H](O)[C@@H](O)[C@@H]2O [E4, 1,3,5 (10)-estratrien-3,15α,16α,17β-tetrol]
Tumour number at necropsy ([3]; estetrol 1 mg/kg/day orally 4 weeks, n=9, 16 at start of treatment): 23 | Tumour number at necropsy ([3]; estetrol 3 mg/kg/day orally 4 weeks, n=9, 16 at start of treatment): 15 | Tumour number at necropsy ([3]; estetrol 10 mg/kg/day orally 4 weeks, n=10, 18 at start of treatment): 7 | Tumour size, percentage change from baseline, net group effect ([3]; estetrol 1, 3, 10 mg/kg/day orally 4 weeks): dose dependent pronounced tumour size reduction | Efficacy, net disappearance of mammary tumours ([3]; estetrol orally 4 weeks, started 8 weeks after DMBA): comparable to ovariectomy | In vivo estrogenicity, relative potency ([6]; 0.125 mg/kg/day EE vs […] E4, hot flushing): equipotency | In vivo estrogenicity, relative potency ([6]; […] EE vs 0.5 mg/kg/day E4, hot flushing): equipotency | Mammary tumour formation ([4]; estetrol 0.5-3.0 mg/kg/day orally): dose-dependent inhibition of mammary tumour formation | Protection from developing tumours ([4]; estetrol 2.5 and 3.0 mg/kg/day orally): completely protected rats from developing tumours | Ki [7]: 4.9 nM | Relative ERα/ERβ preference ([7]; preference for binding to ERα protein versus ERβ protein): 400% | Ki [8]: 19 nM | Effect on proliferation of vascular endothelial cells [9]: No significant effect | half-life ([10]; female, human, plasma, po, oral dosing, human postmenopausal subjects, read-out: Elimination half-life): > 20 h | AUC values, dose-linearity ([10]; oral 0.1, 1, 10 mg, plasma): good dose-linearity | Tolerability ([10]; oral dose increased from 0.1 to 1 and 10 mg, postmenopausal volunteers): Good tolerability | Oral absorption ([10]; over the entire dose range 0.1-10 mg oral): well absorbed | Efficacy in preventing growth of DMBA-induced tumours relative to tamoxifen ([5]; E4 […] vs tamoxifen 3 mg/kg/day orally): as effective as tamoxifen

— US9034854B2, “Pharmaceutical composition comprising estetrol derivatives for use in cancer therapy” (priority 2002, dated 2015)
